Some test systems named below: M19-MEL melanoma; DMS 114 small cell lung; SNB-78 CNS; LXFL 529 NSCLC; HOP-18 NSCLC; KM20L2 colon; DMS 273 small cell lung; XF 498 CNS; RXF-631 renal; P388 leukemia; SN12K1 renal; P388/ADR leukemia.
Holding throughout (assay): NCI tumour cell line growth inhibition, 48 h

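Values below derive from 48-hour exposures of cells grown in 96-well plates, with endpoints linearly interpolated between the two concentrations bracketing the appropriate inhibition level. TGI is the concentration that stops growth completely.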

Regarding `COc1ccc(C2Oc3cc(OC)c(O)c(C)c3[C@H]2C)cc1` (stereo partly specified), the TGI in the assay with M19-MEL melanoma, in the assay with DMS 114 small cell lung, with SNB-78 CNS, in the assay on LXFL 529 NSCLC, in the assay on HOP-18 NSCLC and in the assay with KM20L2 colon was greater than 100 µM throughout. In the assay with DMS 273 small cell lung, this molecule returned a TGI greater than 100 µM.
Consider `c1ccc(C2=NOC3(c4ccccc4)SC4CCCCC4CN23)cc1` (stereo unspecified), for which the TGI in the assay on M19-MEL melanoma was greater than 100 µM; in the assay on DMS 114 small cell lung it was 30.5 µM; in the assay on SNB-78 CNS, 91.7 µM; in the assay on LXFL 529 NSCLC it was 27 µM; in the assay on HOP-18 NSCLC, greater than 100 µM; in the assay on XF 498 CNS, greater than 100 µM. Besides, the TGI in the assay on KM20L2 colon was greater than 100 µM; in the assay with DMS 273 small cell lung, 77.3 µM.
For the molecule `CC(=O)c1ccc2c(ccc(=O)n2C)c1`, the TGI in the assay with M19-MEL melanoma, with DMS 114 small cell lung, in the assay on LXFL 529 NSCLC, in the assay on HOP-18 NSCLC, in the assay on XF 498 CNS and in the assay with KM20L2 colon was greater than 100 µM in each case. The TGI in the assay on DMS 273 small cell lung is greater than 100 µM.
For the molecule `C=C1C(=O)OC2/C=C(/C)C3CC(O)C(C)(CC(OC(=O)/C(C)=C/C)C12)O3` (stereo unspecified), the TGI in the assay on M19-MEL melanoma amounted to 9.57 µM; in the assay with DMS 114 small cell lung it was 19.8 µM; in the assay with SNB-78 CNS, 7.7 µM; in the assay on LXFL 529 NSCLC, 5.84 µM; in the assay with HOP-18 NSCLC it was 31.2 µM; with XF 498 CNS, 17.2 µM. The TGI was 13.1 µM in the assay with KM20L2 colon and 8.8 µM with DMS 273 small cell lung.
With `CC(C)(C)NC(=O)NC12CC3CC(CC(F)(C3)C1)C2`, the TGI with M19-MEL melanoma, with DMS 114 small cell lung, in the assay on SNB-78 CNS, in the assay on LXFL 529 NSCLC, in the assay on RXF-631 renal and in the assay with XF 498 CNS was greater than 100 µM throughout. Also, the TGI with KM20L2 colon and with DMS 273 small cell lung was greater than 100 µM each time.
Consider `Clc1ccccc1C1=NN(c2ccccc2)C2c3ccccc3OCC12` (stereo unspecified), for which the TGI in the assay on M19-MEL melanoma, in the assay on DMS 114 small cell lung, with SNB-78 CNS, in the assay with LXFL 529 NSCLC, in the assay with RXF-631 renal and in the assay on HOP-18 NSCLC was greater than 100 µM in each case. Besides, the TGI in the assay on XF 498 CNS, in the assay with KM20L2 colon and with DMS 273 small cell lung was greater than 100 µM in each case.
Consider `CCN1C[C@]2(C)CC[C@H](OC)C34C1C([C@H](OC(C)=O)[C@@H]32)[C@@]1(OC)C[C@H](OC)[C@H]2C[C@@H]4[C@@H]1[C@H]2O`, for which the TGI with M19-MEL melanoma, in the assay on DMS 114 small cell lung, with SNB-78 CNS, in the assay on LXFL 529 NSCLC, in the assay on HOP-18 NSCLC and in the assay on XF 498 CNS was greater than 100 µM throughout. For the same molecule, the TGI in the assay with KM20L2 colon and with DMS 273 small cell lung was greater than 100 µM throughout.
Consider `CS(=O)(=O)c1c(N)c2nc(Cl)cn2c2nc3ccccc3nc12`, for which the TGI in the assay on M19-MEL melanoma, in the assay on DMS 114 small cell lung, in the assay with SNB-78 CNS, in the assay with LXFL 529 NSCLC, in the assay with RXF-631 renal and in the assay on XF 498 CNS was greater than 100 µM in each case. Further, the TGI in the assay on KM20L2 colon and with DMS 273 small cell lung was greater than 100 µM throughout.
For `CN(CCO)c1nc(N)cc(=O)[nH]1`, the TGI with M19-MEL melanoma, in the assay with DMS 114 small cell lung, in the assay on SNB-78 CNS, in the assay on LXFL 529 NSCLC, with HOP-18 NSCLC and with XF 498 CNS was greater than 100 µM throughout. The TGI in the assay on KM20L2 colon and in the assay with DMS 273 small cell lung was greater than 100 µM throughout.
Take `COC1C(O)C(C)OC(OC2C(Oc3cccc4c(O)c5c(=O)oc6ccc(C)c7c(=O)oc(c34)c5c67)OC(C)C(O)C2O)C1O` (stereo unspecified): the TGI stood at 4.39 µM in the assay with M19-MEL melanoma; 3.48 µM in the assay on P388 leukemia; 4.03 µM in the assay on DMS 114 small cell lung; 19.3 µM in the assay with SNB-78 CNS; 3.5 µM with SN12K1 renal; 85 µM in the assay with P388/ADR leukemia. For the same molecule, the TGI was found to be 8.35 µM in the assay on HOP-18 NSCLC, 3.37 µM in the assay with XF 498 CNS, 18.5 µM in the assay on KM20L2 colon and 9.1 µM in the assay with DMS 273 small cell lung.

The record behind these values is PubChem BioAssay (NCI).
